Legend:
[1] = test system: Alternaria brassicae; test: Antifungal activity against Alternaria brassicae QDAU-16 assessed as reduction in microbial growth by broth microdilution method; format: functional
[2] = test system: Ceratobasidium cornigerum; test: Antifungal activity against Ceratobasidium cornigerum QDAU-6 assessed as reduction in microbial growth by broth microdilution method; format: functional
[3] = test system: Coniella diplodiella; test: Antifungal activity against Coniothyrium diplodiella QDAU-7 assessed as reduction in microbial growth by broth microdilution method; format: functional
[4] = test system: Colletotrichum gloeosporioides; test: Antifungal activity against Colletotrichum gloeosporioides QDAU-2 assessed as reduction in microbial growth by broth microdilution method; format: functional
[5] = test system: Colletotrichum gloeosporioides; test: Antifungal activity against Colletotrichum gloeosporioides QDAU-17 assessed as reduction in microbial growth by broth microdilution method; format: functional
[6] = test system: Curvularia spicifera; test: Antifungal activity against Curvularia spicifera QDAU-18 assessed as reduction in microbial growth by broth microdilution method; format: functional
[7] = test system: Fusarium graminearum; test: Antifungal activity against Fusarium graminearum QDAU-4 assessed as reduction in microbial growth by broth microdilution method; format: functional
[8] = test system: Fusarium oxysporum; test: Antifungal activity against Fusarium oxysporum QDAU-8 assessed as reduction in microbial growth by broth microdilution method; format: functional
[9] = test system: Fusarium proliferatum; test: Antifungal activity against Fusarium proliferatum QDAU-19 assessed as reduction in microbial growth by broth microdilution method; format: functional
[10] = test system: Penicillium digitatum; test: Antifungal activity against Penicillium digitatum QDAU-14 assessed as reduction in microbial growth by broth microdilution method; format: functional
[11] = test system: Botryosphaeria berengeriana; test: Antifungal activity against Physalospora piricola QDAU-15 assessed as reduction in microbial growth by broth microdilution method; format: functional
[12] = test system: Escherichia coli; test: Antibacterial activity against Escherichia coli EMBLC-1 assessed as reduction in microbial growth by broth microdilution method; format: functional
[13] = test system: Edwardsiella tarda; test: Antibacterial activity against Edwardsiella tarda QDIO-2 assessed as reduction in microbial growth by broth microdilution method; format: functional
[14] = test system: Micrococcus luteus; test: Antibacterial activity against Micrococcus luteus QDIO-3 assessed as reduction in microbial growth by broth microdilution method; format: functional
[15] = test system: Pseudomonas aeruginosa; test: Antibacterial activity against Pseudomonas aeruginosa QDIO-4 assessed as reduction in microbial growth by broth microdilution method; format: functional
[16] = test system: Vibrio anguillarum; test: Antibacterial activity against Vibrio anguillarum QDIO-6 assessed as reduction in microbial growth by broth microdilution method; format: functional
[17] = test system: Vibrio harveyi; test: Antibacterial activity against Vibrio harveyi QDIO-7 assessed as reduction in microbial growth by broth microdilution method; format: functional
[18] = test system: Vibrio vulnificus; test: Antibacterial activity against Vibrio vulnificus QDIO-10 assessed as reduction in microbial growth by broth microdilution method; format: functional
[19] = test system: MKN-45; test: Cytotoxicity against human MKN-45 cells assessed as reduction in cell viability at 20 uM; format: functional, cell-based
[20] = test system: A549; test: Cytotoxicity against human A549 cells assessed as reduction in cell viability at 20 uM; format: functional, cell-based
[21] = test system: HCT-116; test: Cytotoxicity against human HCT-116 cells assessed as reduction in cell viability at 20 uM; format: functional, cell-based
[22] = test system: HeLa; test: Cytotoxicity against human HeLa cells assessed as reduction in cell viability at 20 uM; format: functional, cell-based
[23] = test system: K562; test: Cytotoxicity against human K562 cells assessed as reduction in cell viability at 20 uM; format: functional, cell-based
[24] = test system: 786-0; test: Cytotoxicity against human 786-0 cells assessed as reduction in cell viability at 20 uM; format: functional, cell-based
[25] = test system: TE-1; test: Cytotoxicity against human TE-1 cells assessed as reduction in cell viability at 20 uM; format: functional, cell-based
[26] = test system: 5637; test: Cytotoxicity against human 5637 cells assessed as reduction in cell viability at 20 uM; format: functional, cell-based
[27] = test system: GBC-SD; test: Cytotoxicity against human GBC-SD cells assessed as reduction in cell viability at 20 uM; format: functional, cell-based
[28] = test system: L02; test: Cytotoxicity against human L02 cells assessed as reduction in cell viability at 20 uM; format: functional, cell-based
[29] = test system: MCF7; test: Cytotoxicity against human MCF7 cells assessed as reduction in cell viability at 20 uM; format: functional, cell-based
[30] = test system: HepG2; test: Cytotoxicity against human HepG2 cells assessed as reduction in cell viability at 20 uM; format: functional, cell-based
[31] = test system: SF-126; test: Cytotoxicity against human SF-126 cells assessed as reduction in cell viability at 20 uM; format: functional, cell-based
[32] = test system: DU-145; test: Cytotoxicity against human DU-145 cells assessed as reduction in cell viability at 20 uM; format: functional, cell-based
[33] = test system: CAL-62; test: Cytotoxicity against human CAL-62 cells assessed as reduction in cell viability at 20 uM; format: functional, cell-based
[34] = test system: PaTu 8988t; test: Cytotoxicity against human PaTu 8988t cells assessed as reduction in cell viability at 20 uM; format: functional, cell-based
[35] = test system: HOS; test: Cytotoxicity against human HOS cells assessed as reduction in cell viability at 20 uM; format: functional, cell-based
[36] = test system: A-375; test: Cytotoxicity against human A-375 cells assessed as reduction in cell viability at 20 uM; format: functional, cell-based
[37] = test system: A673; test: Cytotoxicity against human A673 cells assessed as reduction in cell viability at 20 uM; format: functional, cell-based
[38] = test system: HEK-293T; test: Cytotoxicity against human HEK293T cells assessed as reduction in cell viability at 20 uM; format: toxicity, cell-based
[39] = test system: Fusarium proliferatum; test: Antifungal activity against Fusarium proliferatum assessed as reduction in microbial growth measured after 72 hrs; format: functional, organism-based

C=C1CC[C@@]2(O)C[C@@H]1[C@]2(C)[C@H](OC(C)=O)C(=O)C=C(C)C
32 mg/L: MIC [11]
4 mg/L: MIC [1] | MIC [3] | MIC [4]
8 mg/L: MIC [2] | MIC [10]
2 mg/L: MIC [7] | MIC [9]
16 mg/L: MIC [5] | MIC [8]
1 mg/L: MIC [6]

C=C1CC[C@H](O)C[C@@H]1[C@H](C)C(=O)[C@H](O)C=C(C)C
> 64 mg/L: MIC [13] | MIC [14] | MIC [15] | MIC [17] | MIC [18]
inactive: Activity [19] Not toxic | Activity [20] Not toxic | Activity [21] Not toxic | Activity [22] Not toxic | Activity [23] Not toxic | Activity [24] Not toxic | Activity [25] Not toxic | Activity [26] Not toxic | Activity [27] Not toxic | Activity [28] Not toxic | Activity [29] Not toxic | Activity [30] Not toxic | Activity [31] Not toxic | Activity [32] Not toxic | Activity [33] Not toxic | Activity [34] Not toxic | Activity [35] Not toxic | Activity [36] Not toxic | Activity [37] Not toxic
8 mg/L: MIC [12]
32 mg/L: MIC [16]
Non-Toxic: Activity [38]

C=C1CC[C@@]2(O)C[C@@H]1[C@]2(C)[C@@H](CC=C(C)C)OC(C)=O
> 64 mg/L: MIC [14] | MIC [15] | MIC [16] | MIC [18]
16 mg/L: MIC [5] | MIC [8] | MIC [17]
2 mg/L: MIC [7] | MIC [9]
32 mg/L: MIC [11]
1 mg/L: MIC [6]
4 mg/L: MIC [2] | MIC [3] | MIC [4] | MIC [13]
8 mg/L: MIC [1] | MIC [10] | MIC [12]

C=C1CC[C@H](O)C[C@@H]1[C@H](C)[C@H](O)C(=O)C=C(C)C
2 mg/L: MIC [18]
64 mg/L: MIC [16]
> 64 mg/L: MIC [12] | MIC [13] | MIC [14] | MIC [15] | MIC [17]

C=C1[C@H](O)C[C@H]2C[C@@H]1[C@](C)([C@H](O)CC=C(C)C)O2
16 mg/L: MIC [9]
2 mg/L: MIC [5] | MIC [7] | MIC [8]
4 mg/L: MIC [2] | MIC [3] | MIC [4]
8 mg/L: MIC [1] | MIC [6] | MIC [10] | MIC [11]

C=C1CC[C@H](O)C[C@@H]1[C@@](C)(O)C(=O)/C=C/C(C)(C)O
64 mg/L: MIC [18]
> 64 mg/L: MIC [12] | MIC [14] | MIC [15] | MIC [16] | MIC [17]
16 mg/L: MIC [13]

C=C1C(=O)C[C@@]2(C)C[C@@H]1[C@](C)([C@H](O)CC=C(C)C)O2
4 mg/L: MIC [1] | MIC [3] | MIC [4] | MIC [8] | MIC [10] | MIC [11]
16 mg/L: MIC [9]
8 mg/L: MIC [2] | MIC [5] | MIC [6]
1 mg/L: MIC [7]

O=C(N[C@H](CO)[C@H](O)c1ccc([N+](=O)[O-])cc1)C(Cl)Cl [CHLORAMPHENICOL]
2 mg/L: MIC [13] | MIC [15] | MIC [18]
0.5 mg/L: MIC [12] | MIC [14] | MIC [16] | MIC [17]

C=C1CC[C@@]2(O)C[C@@H]1[C@]2(C)[C@@H](/C=C/C(C)(C)O)OC(C)=O
1 mg/L: EC50 [39]
2 mg/L: MIC [6] | MIC [8]
Non-Toxic: Activity [38]
active: Activity ([39]; dose <= 100.0 µg/ml) Dose-Dependent Effect
4 mg/L: MIC [2] | MIC [4] | MIC [7] | MIC [10]
0.5 mg/L: MIC [1] | MIC [3] | MIC [9]
8 mg/L: MIC [5] | MIC [11]
inactive: Activity [19] Not toxic | Activity [20] Not toxic | Activity [21] Not toxic | Activity [22] Not toxic | Activity [23] Not toxic | Activity [24] Not toxic | Activity [25] Not toxic | Activity [26] Not toxic | Activity [27] Not toxic | Activity [28] Not toxic | Activity [29] Not toxic | Activity [30] Not toxic | Activity [31] Not toxic | Activity [32] Not toxic | Activity [33] Not toxic | Activity [34] Not toxic | Activity [35] Not toxic | Activity [36] Not toxic | Activity [37] Not toxic

C[C@@H]1[C@H](O)[C@@H](C)/C=C/C=C/C=C/C=C/C=C/C=C/C=C/[C@H](O[C@@H]2O[C@H](C)[C@@H](O)[C@H](N)[C@@H]2O)C[C@@H]2O[C@](O)(C[C@@H](O)C[C@@H](O)[C@H](O)CC[C@@H](O)C[C@@H](O)CC(=O)O[C@H]1C)C[C@H](O)[C@H]2C(=O)O [AMPHOTERICIN B]
4 mg/L: MIC [8] | MIC [10]
8 mg/L: MIC [2] | MIC [5] | MIC [11]
0.5 mg/L: MIC [1] | MIC [3] | MIC [6]
2 mg/L: MIC [4] | MIC [7]
1 mg/L: MIC [9]

C=C1CC[C@@]2(C[C@@H](O)C(=O)OC)C[C@@H]1[C@](C)([C@H](O)CC=C(C)C)O2
8 mg/L: MIC [1] | MIC [10]
64 mg/L: MIC [2] | MIC [5] | MIC [11] | MIC [18]
16 mg/L: MIC [8] | MIC [16]
> 64 mg/L: MIC [12] | MIC [13] | MIC [14] | MIC [15] | MIC [17]
4 mg/L: MIC [3] | MIC [4] | MIC [6] | MIC [7] | MIC [9]

C=C1CC[C@@]2(O)C[C@@H]1[C@]2(C)CC(=O)C=C(C)C
4 mg/L: MIC [2] | MIC [3] | MIC [7] | MIC [10]
> 64 mg/L: MIC [12] | MIC [13] | MIC [16]
8 mg/L: MIC [4] | MIC [5] | MIC [8] | MIC [9] | MIC [18]
32 mg/L: MIC [15]
2 mg/L: MIC [6]
16 mg/L: MIC [11] | MIC [14] | MIC [17]
1 mg/L: MIC [1]

From ChEMBL document CHEMBL5634182, “Antifungal Pseuboyenes A-J, Bergamotene-Derived Sesquiterpenoids from a Cold-Seep-Derived Pseudallescheria boydii” (J Nat Prod, 2024)
